From patent publication US10238630B2, “Use of eribulin and poly (ADP ribose) polymerase (PARP) inhibitors as combination therapy for the treatment of cancer” (Eisai R&D Management Co., Ltd., priority 2014, dated 2019)
“Also recorded” adds a separate entry of the source. Where a name gives a salt, the structure may show the parent alone.

Test system: MDA-MB-231 human breast cancer xenografts
Test: Antitumor activity against subcutaneous MDA-MB-231 human breast cancer xenografts in athymic mice (two studies)
Assay type: in vivo
Protocol: MDA-MB-231 human triple negative breast cancer cells are wild type for BRCA1 and 2 and PTEN. Cells were maintained in monolayer cultures in RPMI-1640 growth medium supplemented with 10% fetal bovine serum at 37° C. in a 5% CO2 humidified incubator. On the day of inoculation, cells were harvested by trypsinization, washed, and resuspended in ice-cold PBS. Female immunodeficient athymic mice were inoculated subcutaneously near the right axillary area with MDA-MB-231 cells (5×10^6) in a 1:1 ratio (50 μL each) with Matrigel™ in a volume of 0.1 mL in phosphate buffered saline, using a 26-gauge needle. A total of 94 mice, approximately 6 weeks old were implanted with MDA-MB-231 cells.
E7449, carboplatin and E7389 were evaluated as single agents and in combination for antitumor activity against MDA-MB-231 human breast cancer xenografts in athymic mice. The first experiment consisted of a vehicle control group, an E7449 single agent group, 2 groups treated with single agent E7389 and 2 combination drug-treated groups (Table 5). Thirty-nine mice were inoculated with MDA-MB-231 cells and on Day 21 following implantation, tumor volumes were measured and mice were randomized into the 6 treatment groups based on tumor volume (average of 300 mm^3). Following randomization drug treatment was initiated. Each group was composed of 5 mice for a total of 30 mice on the first day of treatment. E7449 was formulated in 0.5% methyl cellulose and orally administered once daily for 28 days at 100 mg/kg based on body weight at 0.1 mL per 10 g. E7389 was formulated in saline and was intravenously administered once every 4 days, 4 times (Day 21, 25, 29, and 33) at a dosage of 0.05 or 0.1 mg/kg as single agent or in combination with E7449, based on body weight at 0.1 mL per 10 g. The control group was treated with oral vehicle (0.5% methyl cellulose in water) daily and intravenous vehicle (saline) once every 4 days, 4 times. E7449 or vehicle was administered first and when dosing of all animals was complete E7389 was administered to animals receiving the combination.
The second experiment consisted of a vehicle control group, 2 groups treated with single agent E7449, 2 groups treated with single agent carboplatin and 3 combination drug-treated groups (Table 6). Fifty five mice were inoculated with MDA-MB-231 cells and on Day 18 following implantation, tumor volumes were measured and mice were randomized into 8 treatment groups based on tumor volume (average of 300 mm^3). Following randomization drug treatment was initiated. Each group consisted of 5 mice for a total of 40 mice on the first day of treatment. E7449, formulated in 0.5% methyl cellulose was orally administered daily for 28 days, at 60 or 100 mg/kg based on body weight at 0.1 mL per 10 g. Carboplatin was formulated in saline and was intravenously administered once on the first day of treatment (Day 18) at a dosage of 15 or 60 mg/kg as a single agent or in combination with E7449 based on body weight at 0.1 mL per 10 g. The control group was treated with oral vehicle (0.5% methyl cellulose in water) daily and intravenous vehicle (saline) once on Day 18. E7449 or vehicle was administered first and when dosing of all animals was complete carboplatin was administered to animals receiving the combination.
Drug treatment was initiated 21 or 18 days post tumor implantation, in the E7389 and carboplatin combination studies respectively, and continued for 28 days. […]

| SMILES | inhibition of tumor growth versus vehicle (E7389 0.1 mg/kg IV Q4Dx4, single agent, P<0.05 on Day 42, 0.1 mg/kg) | antitumor effect (tumor volume), dose dependence (E7389 0.05 and 0.1 mg/kg IV Q4Dx4, single agent) | antitumor effect (tumor volume) (E7389 combination study, E7449 100 mg/kg PO QDx28, single agent, 100 mg/kg) | antitumor effect (tumor volume) (carboplatin combination study, E7449 60 or 100 mg/kg PO QDx28, single agent) |
| --- | --- | --- | --- | --- |
| C=C1C[C@@H]2CC[C@@]34C[C@H]5OC6[C@@H](O[C@H]7CC[C@H](CC(=O)C[C@@H]8[C@@H](OC)[C@@H](C[C@H](O)CN)O[C@H]8C[C@H]8O[C@@H](CC[C@@H]1O2)C[C@@H](C)C8=C)O[C@@H]7[C@@H]6O3)[C@H]5O4 [E7389, 11, 15:18,21:24,28-triepoxy-7,9-ethano-12,15-methano-9H,15H-furo[3,2-i]furo[2′,3′:5,6]pyrano[4,3-b] [1,4]dioxacyclopentacosin-5(4H)-one, 2-[(2S)-3-amino-2-hydroxypropyl]hexacosahydro-3-methoxy-26-methyl-20,27-bis(methylene)-, (2R,3R,3aS,7R,8aS,9S,10aR,11S,12R,13aR,13bS,15S,18S,21S,24S,26R,28R,29aS)-methanesulfonate (salt)] | statistically significant effect; also recorded: Statistically significant inhibition of tumor growth | Dose dependent antitumor activity |  |  |
| O=c1[nH]nc2c3c(cccc13)N=C(CN1Cc3ccccc3C1)N2 [E7449] |  |  | did not significantly inhibit tumor growth; also recorded: No antitumor activity | did not significantly inhibit tumor growth; also recorded: No antitumor activity |
